The subject of one data set is ABCB11. Put plainly: CLZD_ABCB11: Change in expression of ABCB11 (primary human hepatocytes). Type of data set: cell-based. Conditions: 24 hr, scale not given, looks like -log10 of molar active concentration, 0 = no activity. Here is the method: This is a collection of multiplexed gene expression assays focused on Phase I and II xenobiotic metabolizing enzymes and transporters. Human primary cell cultures were treated with chemicals at 5 concentrations (0.004-40 [drawing 42] M) for 6, 24 and 48 hr. Concentration- and time-response profiles of chemicals were measured by the expression of key nuclear receptor target genes, activities of CYP1A enzymes (EROD), and cell morphology. Fourteen gene targets were monitored by quantitative nuclease protection assay including: six representative cytochrome P-450 genes, four hepatic transporters, three Phase II conjugating enzymes, and one endogenous metabolism gene involved in cholesterol synthesis. The target genes associated with nuclear receptor pathways are as follows: [drawing 43] and [drawing 44] with [drawing 45]; [drawing 46] , [drawing 47] , [drawing 48] , [drawing 49] , [drawing 50] and [drawing 51] with [drawing 52]; [drawing 53] , [drawing 54] , [drawing 55] and [drawing 56] with [drawing 57]; [drawing 58] with [drawing 59]; and [drawing 60] with [drawing 61] . Assays were run in primary human hepatocyte cultures by CellzDirect Invitrogen Inc. (Durham, NC), in collaboration with EPA.
Multiplexed Gene Expression in Human Primary Hepatocytes: This is a collection of multiplexed gene expression assays focused on Phase I and II metabolic enzymes and transporters. […] Fourteen gene targets were monitored by quantitative nuclease protection assay: six representative cytochrome P450 genes, four hepatic transporters, three Phase II conjugating enzymes, and one endogenous metabolism gene involved in cholesterol synthesis. Cells were exposed at 5 concentrations (0.004-40 µM) for 6, 24 or 48 hr. Gene targets are sentinels for five nuclear receptor signaling pathways: AhR, CAR, PXR, FXR, and PPARα. All gene are associated with nuclear receptor pathways: CYP1A1 and CYP1A2 with AHR; ABCB1, ABCG2, CYP2B6, CYP2C9, CYP2C19 and UGT1A1 with CAR; CYP3A4, GSTA2, SLCO1B1 and SULT2A1 with PXR; HMGCS2 with PPARA; and ABCB11 with FXR. […] Detailed description of the methods, data and analysis methods for this dataset will be presented in a separate publication.

The next data set deals with CYP1A2. Put plainly: CLZD_CYP1A2: Change in expression of CYP1A2 (primary human hepatocytes). The data set is classed as cell-based. Conditions: 24 hr. Put shortly: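 Cultured primary human hepatocytes treated with chemicals for 6, 24 or 48 hr across five concentrations spanning 0.004-40 µM, then transcript level measured by quantitative nuclease protection in a multiplexed format.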

The next data set concerns CYP3A4. Put plainly: CLZD_CYP3A4: Change in expression of CYP3A4 (primary human hepatocytes). Type of data set: cell-based. The conditions noted are these: 24 hr. Put shortly:
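Primary human hepatocyte cultures were exposed to test chemicals at 5 concentrations (0.004-40 µM) for 6, 24 or 48 hr.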

In the next data set the test system is LXRa (NR1H2). Put plainly: NCGC_LXR_Agonist: GAL4 BLAM Reporter gene assay: LXRa. Conditions: agonist mode. The data set is classed as cell-based, human. Here is the method:
These assays measure binding constants and enzyme inhibition values for nuclear receptors. The targets include [drawing 67] , [drawing 68] , [drawing 69] , [drawing 70] , [drawing 71] , [drawing 72] , [drawing 73] , [drawing 74] , [drawing 75] and [drawing 76] . Each of the nuclear receptor targets was measured in agonist mode. Assays were run at the NIH Chemical Genomics Center (Rockville, MD).
Cell-based HTS Assays: These assays measuring binding constants and enzyme inhibition values for nuclear receptors. The targets include AR, ER, FXR, LXR, PPARα, PPARδ, PPARγ, RXRα, RXRβ and PXR. Each of the nuclear receptor targets was measured in both agonist and antagonist mode, but the antagonist data is still undergoing analysis due to possible interference between cytotoxicity and assay activity, so antagonist mode data were not used in the present analysis. Assays were run at the NIH Chemical Genomics Center (Rockville, MD) as part of the Tox21 collaboration. […] The R^2 was required to be ≥0.5. Values where only the highest concentration exceeded 50% activity were excluded to eliminate weak or false positives. Detailed description of the methods, data and analysis methods for this dataset will be presented in a separate publication.

The target in a further data set is T1, PXR Human (NR1I2) (Homo sapiens, UniProt O75469).
T1 sequence (O75469 146-434 limits assumed): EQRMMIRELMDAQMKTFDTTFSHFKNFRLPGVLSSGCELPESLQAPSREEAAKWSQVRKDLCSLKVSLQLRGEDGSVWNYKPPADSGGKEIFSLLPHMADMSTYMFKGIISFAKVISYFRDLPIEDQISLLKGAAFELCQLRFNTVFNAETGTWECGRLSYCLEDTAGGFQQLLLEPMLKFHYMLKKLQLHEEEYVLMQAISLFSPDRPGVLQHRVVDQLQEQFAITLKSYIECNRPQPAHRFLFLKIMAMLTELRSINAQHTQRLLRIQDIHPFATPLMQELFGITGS
Put plainly: NCGC_PXR_Agonist_human: GAL4 BLAM Reporter gene assay: PXR Human. Conditions: agonist mode. Type of data set: cell-based. In a few lines:
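Tox21 cell-based screens at NCGC using GAL4-fused receptor beta-lactamase reporters. Responses active only at the top concentration (above 50%) were discarded, and fits needed R^2 of at least 0.5.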
In general terms: In a reporter assay the amount or activity of a reporter protein is the signal.

The subject of another data set is AR (androgen receptor). The experiment in a line: NVS_NR_hAR: Human AR 3H-Methyltrienolone (cell-free HTS). Type of data set: binding. From the text: These are a collection of biochemical assays measuring binding constants and enzyme inhibition values. Chemicals were initially screened at a single concentration in duplicate wells at a concentration of 10 [drawing 63] M for cytochrome P-450 assays and 25 [drawing 64] M for all others. […] These assays were run by Caliper Life Sciences (Hanover, MD) under contract to EPA. Short assay descriptions are available at: http://www.caliperls.com/products/contract-research/in-vitro/.
Cell-free HTS Assays: A collection of biochemical assays measuring binding constants and enzyme inhibition values. […] These assays were run by Caliper Life Sciences (Hanover, MD) under contract to EPA. Short assay descriptions are available at http://www.caliperls.com/products/contract-research/in-vitro/. Values for all endpoints were imported into GeneData Screener (Basel, Switzerland) and normalised to solvent controls from the same plate as the tested compounds and expressed as percent of neutral control. Concentration-response curves were fit in GeneData Screener (Basel, Switzerland) Condeseo module using the Hill equation and AC50 values were determined. […] Detailed description of the methods, data and analysis methods for this dataset are described in a separate publication.

The next data set deals with T2, PXR (NR1I2) (Homo sapiens, UniProt O75469).
T2 sequence (O75469 1-434): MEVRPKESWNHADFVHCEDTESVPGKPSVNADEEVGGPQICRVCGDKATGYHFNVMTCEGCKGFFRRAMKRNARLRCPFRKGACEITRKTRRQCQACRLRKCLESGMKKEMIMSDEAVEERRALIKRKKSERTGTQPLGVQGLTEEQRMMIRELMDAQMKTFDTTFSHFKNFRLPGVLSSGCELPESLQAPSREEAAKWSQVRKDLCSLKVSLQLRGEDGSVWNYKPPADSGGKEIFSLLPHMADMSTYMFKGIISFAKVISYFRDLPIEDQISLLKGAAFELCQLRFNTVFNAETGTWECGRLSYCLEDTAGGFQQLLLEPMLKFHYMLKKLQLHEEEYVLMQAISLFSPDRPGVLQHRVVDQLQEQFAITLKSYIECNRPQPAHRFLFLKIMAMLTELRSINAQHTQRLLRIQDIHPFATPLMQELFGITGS
Put plainly: NVS_NR_hPXR: Human PXR Fluormone PXR (SXR) green (cell-free HTS). Type of data set: binding. Put shortly: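 Cell-free biochemical binding assays; chemicals first screened at a single concentration of 25 […] M in duplicate wells. Signals normalised to same-plate solvent controls as percent of neutral control, and AC50 values came from Hill-equation fits of concentration-response curves.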

[1] abbreviates: scale not given, looks like -log10 of molar active concentration, 0 = no activity.

The values below come from publication PMC3038857, “Using Nuclear Receptor Activity to Stratify Hepatocarcinogens” (PLoS ONE, 2011).

Read-outs that look alike come from different tables or passages of the source.

In turn, `COC(=O)c1ccccc1CS(=O)(=O)NC(=O)Nc1nc(OC)cc(OC)n1` [r33] gave a CLZD_ABCB11_24 in the data set on ABCB11 of 0. The same compound registered a CLZD_CYP1A2_24 in the data set on CYP1A2 (setting [1]) of 0. Further, the CLZD_CYP3A4_24 with CYP3A4 (setting [1]) turned out to be 0. The same compound yielded an NCGC_LXR_Agonist in the data set with LXRa (NR1H2) (setting [1]) of 0. On PXR Human (NR1I2) (setting [1]), this compound came in with an NCGC_PXR_Agonist_human of 0. In addition, the NVS_NR_hAR in the data set with AR (androgen receptor) (setting [1]) turned out to be 0. At PXR (NR1I2) (setting [1]), this compound displayed an NVS_NR_hPXR of 0.
Regarding `CC(C)N1C(=O)c2ccccc2NS1(=O)=O` [r37], in the data set with ABCB11, the CLZD_ABCB11_24 was determined as 0. This compound also returned a CLZD_CYP1A2_24 with CYP1A2 (setting [1]) of 0. Further, the CLZD_CYP3A4_24 in the data set with CYP3A4 (setting [1]) is on record as 0. Besides, in the data set on LXRa (NR1H2) (setting [1]), the NCGC_LXR_Agonist was 0. The compound further returned an NCGC_PXR_Agonist_human on PXR Human (NR1I2) (setting [1]) of 0. The NVS_NR_hAR in the data set on AR (androgen receptor) (setting [1]) was determined as 0. Moreover, the NVS_NR_hPXR at PXR (NR1I2) (setting [1]) is 0.
The compound `COc1ccc(-c2ccccc2)cc1NNC(=O)OC(C)C` [r38] had a CLZD_ABCB11_24 in the data set with ABCB11 of 0. For the same compound, the CLZD_CYP1A2_24 with CYP1A2 (setting [1]) was 5.768. Moreover, the CLZD_CYP3A4_24 in the data set on CYP3A4 (setting [1]) turned out to be 0. Besides, in the data set with LXRa (NR1H2) (setting [1]), the NCGC_LXR_Agonist is 0. The NCGC_PXR_Agonist_human at PXR Human (NR1I2) (setting [1]) is 0. The NVS_NR_hAR with AR (androgen receptor) (setting [1]) is given as 0. Moreover, the NVS_NR_hPXR at PXR (NR1I2) (setting [1]) is listed as 0.
On to `Cc1c(COC(=O)C2C(/C=C(\Cl)C(F)(F)F)C2(C)C)cccc1-c1ccccc1` (centres unmarked) [r39], for which the CLZD_ABCB11_24 in the data set on ABCB11 is on record as 0. The compound also had a CLZD_CYP1A2_24 in the data set with CYP1A2 (setting [1]) of 0. Moreover, the CLZD_CYP3A4_24 with CYP3A4 (setting [1]) is on record as 4.923. In the data set on LXRa (NR1H2) (setting [1]), this compound had an NCGC_LXR_Agonist of 0. The same compound registered an NCGC_PXR_Agonist_human on PXR Human (NR1I2) (setting [1]) of 4.546. In the data set with AR (androgen receptor) (setting [1]), this compound came in with an NVS_NR_hAR of 0. At PXR (NR1I2) (setting [1]), this compound registered an NVS_NR_hPXR of 0.
In the data set on ABCB11, `CC(C)(c1ccc(O)cc1)c1ccc(O)cc1` [r40] returned a CLZD_ABCB11_24 of 0. The CLZD_CYP1A2_24 in the data set with CYP1A2 (setting [1]) stood at 0. The compound also registered a CLZD_CYP3A4_24 in the data set on CYP3A4 (setting [1]) of 0. Besides, the NCGC_LXR_Agonist in the data set with LXRa (NR1H2) (setting [1]) is reported as 0. At PXR Human (NR1I2) (setting [1]), this compound yielded an NCGC_PXR_Agonist_human of 4.688. The NVS_NR_hAR with AR (androgen receptor) (setting [1]) is 4.747. For the same compound, the NVS_NR_hPXR at PXR (NR1I2) (setting [1]) was 0.
Compound `OB(O)O` [r41] returned a CLZD_ABCB11_24 in the data set on ABCB11 of 0. For the same compound, the NCGC_LXR_Agonist with LXRa (NR1H2) (setting [1]) was determined as 0. The NCGC_PXR_Agonist_human at PXR Human (NR1I2) (setting [1]) was found to be 0. The compound further yielded an NVS_NR_hAR in the data set on AR (androgen receptor) (setting [1]) of 0. For the same compound, the NVS_NR_hPXR at PXR (NR1I2) (setting [1]) was found to be 0.
Consider `C=CCOC(=O)C(C)(C)OC(=O)c1cc(-n2c(=O)cc(C(F)(F)F)n(C)c2=O)ccc1Cl` [r47], for which, in the data set with ABCB11, the CLZD_ABCB11_24 turned out to be 0. Further, the NCGC_LXR_Agonist in the data set with LXRa (NR1H2) (setting [1]) is 0. The compound also displayed an NCGC_PXR_Agonist_human at PXR Human (NR1I2) (setting [1]) of 0. The NVS_NR_hAR in the data set on AR (androgen receptor) (setting [1]) was 0. In addition, the NVS_NR_hPXR on PXR (NR1I2) (setting [1]) is given as 0.
In turn, `CNC(=O)Oc1cccc2ccccc12` [r52] gave a CLZD_ABCB11_24 with ABCB11 of 0. For the same compound, the NCGC_LXR_Agonist in the data set with LXRa (NR1H2) (setting [1]) stood at 0. The compound further yielded an NCGC_PXR_Agonist_human on PXR Human (NR1I2) (setting [1]) of 0. Further, in the data set on AR (androgen receptor) (setting [1]), the NVS_NR_hAR was 0. The compound further had an NVS_NR_hPXR on PXR (NR1I2) (setting [1]) of 0.
In the data set with CYP1A2, `C#CCC1=C(C)[C@H](OC(=O)[C@H]2[C@H](C=C(C)C)C2(C)C)CC1=O` [r249] gave a CLZD_CYP1A2_24 of 5.3. In the data set with CYP3A4, this compound displayed a CLZD_CYP3A4_24 of 5.185. The compound also returned an NCGC_LXR_Agonist in the data set on LXRa (NR1H2) of 4.777. This compound showed an NCGC_PXR_Agonist_human at PXR Human (NR1I2) of 4.699. In addition, the NVS_NR_hAR in the data set on AR (androgen receptor) is recorded as 4.991. This compound also came in with an NVS_NR_hPXR at PXR (NR1I2) of 4.666.
